Consider 20 compounds from patent publication US9938273B2 (Plexxikon Inc., priority 2015, dated 2018).

Experiment [1] concerns the target T1, FLT3-D835Y (Homo sapiens, UniProt P36888, D835Y).
T1 construct: purchased Invitrogen PV3967
T1 sequence (P36888 27-993 D835Y): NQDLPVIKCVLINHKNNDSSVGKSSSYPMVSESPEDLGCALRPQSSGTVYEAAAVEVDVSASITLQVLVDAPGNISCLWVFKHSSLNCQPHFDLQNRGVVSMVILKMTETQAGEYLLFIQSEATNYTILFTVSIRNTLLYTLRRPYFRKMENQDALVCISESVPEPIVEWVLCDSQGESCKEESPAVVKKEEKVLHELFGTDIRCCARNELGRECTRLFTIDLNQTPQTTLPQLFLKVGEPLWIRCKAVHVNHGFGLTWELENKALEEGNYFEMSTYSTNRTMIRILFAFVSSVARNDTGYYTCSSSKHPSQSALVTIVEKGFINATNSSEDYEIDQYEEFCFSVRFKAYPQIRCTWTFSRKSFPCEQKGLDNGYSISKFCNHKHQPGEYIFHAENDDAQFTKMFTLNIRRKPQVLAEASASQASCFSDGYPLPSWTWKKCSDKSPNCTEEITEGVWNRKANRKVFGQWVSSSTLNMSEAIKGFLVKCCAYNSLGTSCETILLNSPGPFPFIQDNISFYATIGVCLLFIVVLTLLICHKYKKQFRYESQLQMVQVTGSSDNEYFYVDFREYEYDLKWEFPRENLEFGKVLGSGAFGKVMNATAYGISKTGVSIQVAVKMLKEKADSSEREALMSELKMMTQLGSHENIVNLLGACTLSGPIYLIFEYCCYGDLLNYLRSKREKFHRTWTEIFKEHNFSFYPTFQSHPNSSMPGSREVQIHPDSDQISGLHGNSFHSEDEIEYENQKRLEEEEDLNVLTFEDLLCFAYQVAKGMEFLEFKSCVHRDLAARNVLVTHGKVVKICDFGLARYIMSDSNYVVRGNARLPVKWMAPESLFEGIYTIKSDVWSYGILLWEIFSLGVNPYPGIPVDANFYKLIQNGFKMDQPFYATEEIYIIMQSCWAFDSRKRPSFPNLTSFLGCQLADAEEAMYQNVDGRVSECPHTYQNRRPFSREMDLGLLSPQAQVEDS
As to the kind of experiment: AlphaScreen kinase assay with recombinant enzyme, FLT3-D835Y. The format is biochemical. To be noted: 8pt, GMean. In a few lines: (§1)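 Recombinant kinase phosphorylates biotinylated poly(Glu4-Tyr) peptide (30 nM final); streptavidin donor and anti-phosphotyrosine PY20 acceptor beads (10 μg/mL final) give a 580 nm proximity signal on 680 nm excitation. IC50 determinations used a final concentration of 10 μM for FLT3-D835Y/FLT3-ITD and 100 μM for c-KIT.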
For orientation: In Alpha technology, singlet oxygen from a donor bead excites a nearby acceptor bead.

Experiment [2] has as its target T2, FLT3-ITD (Homo sapiens, UniProt P36888).
T2 sequence (P36888 1-993): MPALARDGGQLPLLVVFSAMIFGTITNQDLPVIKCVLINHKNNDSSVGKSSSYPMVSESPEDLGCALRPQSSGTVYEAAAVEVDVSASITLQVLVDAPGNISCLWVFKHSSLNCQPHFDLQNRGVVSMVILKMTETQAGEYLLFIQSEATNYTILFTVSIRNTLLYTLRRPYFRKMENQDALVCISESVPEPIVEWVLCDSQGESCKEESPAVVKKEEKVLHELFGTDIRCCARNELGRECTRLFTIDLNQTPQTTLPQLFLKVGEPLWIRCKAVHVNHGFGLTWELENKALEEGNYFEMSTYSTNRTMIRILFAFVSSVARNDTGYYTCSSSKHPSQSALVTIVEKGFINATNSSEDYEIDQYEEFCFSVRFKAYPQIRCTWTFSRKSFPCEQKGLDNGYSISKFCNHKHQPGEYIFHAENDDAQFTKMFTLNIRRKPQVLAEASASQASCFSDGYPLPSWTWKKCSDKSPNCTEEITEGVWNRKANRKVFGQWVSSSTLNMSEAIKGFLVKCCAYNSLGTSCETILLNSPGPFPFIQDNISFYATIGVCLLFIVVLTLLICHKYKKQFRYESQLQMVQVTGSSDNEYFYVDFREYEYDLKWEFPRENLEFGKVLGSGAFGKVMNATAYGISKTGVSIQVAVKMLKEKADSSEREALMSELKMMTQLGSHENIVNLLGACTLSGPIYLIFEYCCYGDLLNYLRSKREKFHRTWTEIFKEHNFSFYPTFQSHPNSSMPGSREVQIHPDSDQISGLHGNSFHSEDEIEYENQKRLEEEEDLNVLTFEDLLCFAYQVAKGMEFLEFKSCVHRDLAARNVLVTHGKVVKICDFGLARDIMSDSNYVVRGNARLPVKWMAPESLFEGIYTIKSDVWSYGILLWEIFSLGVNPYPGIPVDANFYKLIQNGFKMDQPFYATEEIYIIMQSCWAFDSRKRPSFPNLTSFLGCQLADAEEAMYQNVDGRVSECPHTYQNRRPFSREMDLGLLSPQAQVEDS
In words: AlphaScreen kinase assay with recombinant enzyme, FLT3-ITD. The format is biochemical. To be noted: 8pt; read-out: FLT3_ITD 8pt: IC50. The procedure, abridged:
as §1

SMILES strings stand for the structures.

As a reminder, the IC50 is the concentration that gives 50% inhibition. As to `O=S(=O)(NC1CC1)c1cccc(-c2cnc3[nH]c(C#CCO)cc3c2)c1` [Compound P-0008, N-cyclopropyl-3-[2-(3-hydroxyprop-1-ynyl)-1H-pyrrolo[2,3-b]pyridin-5-yl]benzenesulfonamide], the IC50 in experiment [1] lay in the range of 0.0001 to 10 µM. Consider `CN(C)CC#Cc1cc2cc(-c3cccc(S(=O)(=O)NC4CC4)c3)cnc2[nH]1` [Compound P-0009, N-cyclopropyl-3-[2-[3-(dimethylamino)prop-1-ynyl]-1H-pyrrolo[2,3-b]pyridin-5-yl]benzenesulfonamide], for which the IC50 in experiment [1] fell in the range of 0.0001 to 10 µM. Take `O=S(=O)(NC1CC1)c1cccc(-c2cnc3[nH]c(C#CC4CCCCC4)cc3c2)c1` [Compound P-0010, 3-[2-(2-cyclohexylethynyl)-1H-pyrrolo[2,3-b]pyridin-5-yl]-N-cyclopropyl-benzenesulfonamide]: the IC50 in experiment [1] lay within 50 to 100 µM. For `CC(C)(C)OC(=O)NC1CCN(C(=O)c2n[nH]c3ccc(-c4cnc5[nH]c(-c6ccccc6)cc5c4)cc23)CC1` [Compound P-0011, tert-butyl N-[1-[5-(2-phenyl-1H-pyrrolo[2,3-b]pyridin-5-yl)-1H-indazole-3-carbonyl]-4-piperidyl]carbamate], the IC50 in experiment [1] fell in the range of 0.0001 to 10 µM. In the case of `O=S(=O)(NC1CC1)c1cccc(-c2cnc3[nH]c(C#Cc4ccccc4)cc3c2)c1` [Compound P-0014, N-cyclopropyl-3-[2-(2-phenylethynyl)-1H-pyrrolo[2,3-b]pyridin-5-yl]benzenesulfonamide], in experiment [1], the IC50 was in the range of 50 to 100 µM. On to `CN1CC(NC(=O)c2cccc(-c3cnc4[nH]c(-c5ccccc5)cc4c3)n2)C1` [Compound P-0075, N-(1-methylazetidin-3-yl)-6-(2-phenyl-1H-pyrrolo[2,3-b]pyridin-5-yl)pyridine-2-carboxamide], for which the IC50 in experiment [2] and in experiment [1] was 0.0001 to 10 µM throughout. Turning to `NC1(C(F)(F)F)CCN(C(=O)c2cccc(-c3cnc4[nH]c(-c5ccccc5)cc4c3)n2)C1` (centres unmarked) [Compound P-0077, [3-amino-3-(trifluoromethyl)pyrrolidin-1-yl]-[6-(2-phenyl-1H-pyrrolo[2,3-b]pyridin-5-yl)-2-pyridyl]methanone], the IC50 in experiment [2] and in experiment [1] was 0.0001 to 10 µM in each case. Turning to `CC1(N)CCN(C(=O)c2cccc(-c3cnc4[nH]c(-c5ccccc5)cc4c3)n2)C1` (centres unmarked) [Compound P-0078, (3-amino-3-methyl-pyrrolidin-1-yl)-[6-(2-phenyl-1H-pyrrolo[2,3-b]pyridin-5-yl)-2-pyridyl]methanone], the IC50 in experiment [2] and in experiment [1] was 0.0001 to 10 µM in each case. With `CNCC1CCN(C(=O)c2cccc(-c3cnc4[nH]c(-c5ccccc5)cc4c3)n2)C1` (centres unmarked) [Compound P-0079, [3-(methylaminomethyl)pyrrolidin-1-yl]-[6-(2-phenyl-1H-pyrrolo[2,3-b]pyridin-5-yl)-2-pyridyl]methanone], the 50% inhibitory concentration (IC50) in experiment [2] and in experiment [1] was 0.0001 to 10 µM throughout. As to `CC(C)(C#N)NC(=O)c1cccc(-c2cnc3[nH]c(-c4cscn4)cc3c2)n1` [Compound P-0167, N-(1-cyano-1-methyl-ethyl)-6-(2-thiazol-4-yl-1H-pyrrolo[2,3-b]pyridin-5-yl)pyridine-2-carboxamide], the IC50 in experiment [2] and in experiment [1] was 0.0001 to 10 µM throughout.

As for `CC(C)(C#N)NC(=O)c1cccc(-c2cnc3[nH]c(-c4cnn(C(=O)C5CC5)c4)cc3c2)n1` [Compound P-0184, N-(1-cyano-1-methyl-ethyl)-6-[2-[1-(cyclopropanecarbonyl)pyrazol-4-yl]-1H-pyrrolo[2,3-b]pyridin-5-yl]pyridine-2-carboxamide], the IC50 in experiment [2] and in experiment [1] was 0.0001 to 10 µM in each case. Regarding `CC(C)(C#N)NC(=O)c1cccc(-c2cnc3[nH]c(-c4cnn(C(F)F)c4)c(Cl)c3c2)n1` [Compound P-0185, 6-[3-chloro-2-[1-(difluoromethyl)pyrazol-4-yl]-1H-pyrrolo[2,3-b]pyridin-5-yl]-N-(1-cyano-1-methyl-ethyl)pyridine-2-carboxamide], the IC50 in experiment [2] and in experiment [1] was 0.0001 to 10 µM each time.

Turning to `CC(C)(C#N)NC(=O)c1cccc(-c2cnc3[nH]c(C4=CCS(=O)(=O)CC4)cc3c2)n1` [Compound P-0186, N-(1-cyano-1-methyl-ethyl)-6-[2-(1,1-dioxo-3,6-dihydro-2H-thiopyran-4-yl)-1H-pyrrolo[2,3-b]pyridin-5-yl]pyridine-2-carboxamide], the IC50 in experiment [2] and in experiment [1] was 0.0001 to 10 µM in each case. Turning to `CC(C)Oc1ccc(-c2cc3cc(-c4cccc(C(=O)NC(C)(C)C#N)n4)cnc3[nH]2)cn1` [Compound P-0190, N-(1-cyano-1-methyl-ethyl)-6-[2-(6-isopropoxy-3-pyridyl)-1H-pyrrolo[2,3-b]pyridin-5-yl]pyridine-2-carboxamide], the IC50 in experiment [2] and in experiment [1] was 0.0001 to 10 µM in each case. For the compound `CC(C)Oc1ncc(-c2cc3cc(-c4cccc(C(=O)NC(C)(C)C#N)n4)cnc3[nH]2)cn1` [Compound P-0191, N-(1-cyano-1-methyl-ethyl)-6-[2-(2-isopropoxypyrimidin-5-yl)-1H-pyrrolo[2,3-b]pyridin-5-yl]pyridine-2-carboxamide], the IC50 in experiment [2] and in experiment [1] was 0.0001 to 10 µM throughout.

For `Cc1nn(C(C)C)cc1-c1[nH]c2ncc(-c3cccc(C(=O)NC(C)(C)C#N)n3)cc2c1Cl` [Compound P-0192], the IC50 in experiment [2] and in experiment [1] was 0.0001 to 10 µM each time. As to `CC(C)(C#N)NC(=O)c1cccc(-c2cnc3[nH]c(-c4cnn(CC(F)(F)F)c4)cc3c2)n1` [Compound P-0193, N-(1-cyano-1-methyl-ethyl)-6-[2-[1-(2,2,2-trifluoroethyl)pyrazol-4-yl]-1H-pyrrolo[2,3-b]pyridin-5-yl]pyridine-2-carboxamide], the IC50 in experiment [2] and in experiment [1] was 0.0001 to 10 µM throughout.

For `CC(C)(C#N)NC(=O)c1cccc(-c2cnc3[nH]c(-c4ccc(C5(C#N)CC5)cc4)cc3c2)n1` [Compound P-0194, 6-[2-[4-(1-cyanocyclopropyl)phenyl]-1H-pyrrolo[2,3-b]pyridin-5-yl]-N-(1-cyano-1-methyl-ethyl)pyridine-2-carboxamide], the concentration for half-maximal inhibition (IC50) in experiment [2] and in experiment [1] was 0.0001 to 10 µM throughout. `CC(C)(C#N)NC(=O)c1cccc(-c2cnc3[nH]c(-c4cncnc4)cc3c2)n1` [Compound P-0195, N-(1-cyano-1-methyl-ethyl)-6-(2-pyrimidin-5-yl-1H-pyrrolo[2,3-b]pyridin-5-yl)pyridine-2-carboxamide]: the IC50 in experiment [2] and in experiment [1] was 0.0001 to 10 µM in each case. As for `COc1ncc(-c2cc3cc(-c4cccc(C(=O)NC(C)(C)C#N)n4)cnc3[nH]2)cn1` [Compound P-0196, N-(1-cyano-1-methyl-ethyl)-6-[2-(2-methoxypyrimidin-5-yl)-1H-pyrrolo[2,3-b]pyridin-5-yl]pyridine-2-carboxamide], the IC50 in experiment [2] and in experiment [1] was 0.0001 to 10 µM throughout.
